The record followed here is PMC7034854, “Inter-species variation in monovalent anion substrate selectivity and inhibitor sensitivity in the sodium iodide symporter (NIS)” (PLoS ONE, 2020).

What is called IC50 is the concentration needed to halve the response being measured. A higher IC50 goes with weaker potency. The term Km denotes the substrate concentration at which the rate is half of its maximum.

Data set [1] has as its target T1, sodium iodide symporter (wNIS) (Balaenoptera acutorostrata, UniProt A0A384B8D1).
T1 construct: gene SLC5A5; N-terminally HA-tagged NIS (642 residues, XP_007195539.1) expressed in HeLa cells
T1 sequence (A0A384B8D1 1-642): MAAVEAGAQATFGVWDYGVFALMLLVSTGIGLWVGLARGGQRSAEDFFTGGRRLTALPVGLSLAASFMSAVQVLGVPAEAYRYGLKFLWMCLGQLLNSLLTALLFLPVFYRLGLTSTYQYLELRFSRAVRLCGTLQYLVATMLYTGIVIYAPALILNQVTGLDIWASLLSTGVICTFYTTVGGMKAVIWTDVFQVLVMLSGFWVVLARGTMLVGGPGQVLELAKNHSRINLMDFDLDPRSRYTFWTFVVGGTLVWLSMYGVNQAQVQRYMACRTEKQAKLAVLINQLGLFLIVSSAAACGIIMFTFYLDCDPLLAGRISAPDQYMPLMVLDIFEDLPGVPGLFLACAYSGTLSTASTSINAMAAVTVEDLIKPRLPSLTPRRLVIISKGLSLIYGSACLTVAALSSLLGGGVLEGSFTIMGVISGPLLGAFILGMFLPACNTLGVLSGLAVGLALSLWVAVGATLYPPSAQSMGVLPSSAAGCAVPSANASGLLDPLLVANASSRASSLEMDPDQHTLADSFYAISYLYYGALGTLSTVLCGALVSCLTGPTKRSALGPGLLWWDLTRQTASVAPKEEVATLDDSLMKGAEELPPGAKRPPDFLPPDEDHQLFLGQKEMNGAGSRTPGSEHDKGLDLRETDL
The data set is described as follows: […]- uptake inhibition in transduced HeLa cells. Type of data set: cell-based.

Data set [2] has as its target T2, sodium iodide symporter (hNIS) (Homo sapiens, UniProt Q92911).
T2 construct: gene SLC5A5; N-terminally HA-tagged NIS (643 residues) expressed in HeLa cells
T2 sequence (Q92911 1-643): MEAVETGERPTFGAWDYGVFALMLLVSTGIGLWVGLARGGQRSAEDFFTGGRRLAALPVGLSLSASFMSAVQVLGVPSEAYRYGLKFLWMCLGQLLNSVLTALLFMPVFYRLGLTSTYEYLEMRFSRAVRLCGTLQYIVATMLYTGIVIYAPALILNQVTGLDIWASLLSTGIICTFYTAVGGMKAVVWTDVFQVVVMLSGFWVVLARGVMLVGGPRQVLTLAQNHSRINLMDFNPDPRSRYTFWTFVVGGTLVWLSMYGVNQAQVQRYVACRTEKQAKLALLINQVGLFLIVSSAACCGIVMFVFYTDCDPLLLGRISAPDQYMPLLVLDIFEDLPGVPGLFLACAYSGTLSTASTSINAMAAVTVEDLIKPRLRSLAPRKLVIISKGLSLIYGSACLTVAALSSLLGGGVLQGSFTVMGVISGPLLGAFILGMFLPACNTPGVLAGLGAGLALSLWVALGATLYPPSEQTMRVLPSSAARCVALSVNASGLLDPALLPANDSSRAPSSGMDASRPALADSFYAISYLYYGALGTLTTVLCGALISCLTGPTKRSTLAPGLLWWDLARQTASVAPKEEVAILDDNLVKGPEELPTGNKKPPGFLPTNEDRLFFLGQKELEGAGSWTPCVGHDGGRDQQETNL
The data set is described as follows: […]- uptake inhibition in transduced HeLa cells. The class given is cell-based.

The target in data set [3] is T3, sodium iodide symporter (zNIS) (Danio rerio, UniProt A0AC58G7K6).
T3 construct: gene slc5a5; N-terminally HA-tagged NIS (601 residues, NP_001082860.1) expressed in HeLa cells
T3 sequence (A0AC58G7K6 1-601): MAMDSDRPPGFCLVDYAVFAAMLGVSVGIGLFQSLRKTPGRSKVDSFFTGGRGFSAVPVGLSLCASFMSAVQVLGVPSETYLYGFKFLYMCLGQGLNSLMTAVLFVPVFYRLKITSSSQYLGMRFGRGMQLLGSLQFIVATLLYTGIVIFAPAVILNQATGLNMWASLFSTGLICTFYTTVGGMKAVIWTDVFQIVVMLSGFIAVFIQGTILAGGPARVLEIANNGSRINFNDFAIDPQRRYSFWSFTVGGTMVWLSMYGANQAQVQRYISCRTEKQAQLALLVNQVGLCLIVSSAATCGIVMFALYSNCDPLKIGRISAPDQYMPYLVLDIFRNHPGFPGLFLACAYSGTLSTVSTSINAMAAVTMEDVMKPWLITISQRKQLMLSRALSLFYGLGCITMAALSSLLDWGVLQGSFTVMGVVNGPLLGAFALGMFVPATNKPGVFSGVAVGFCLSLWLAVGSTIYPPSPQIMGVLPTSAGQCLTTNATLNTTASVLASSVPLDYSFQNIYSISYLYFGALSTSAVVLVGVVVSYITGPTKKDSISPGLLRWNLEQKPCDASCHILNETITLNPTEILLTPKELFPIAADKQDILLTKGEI
The data set is described as follows: […]- uptake inhibition in transduced HeLa cells. The class given is cell-based.

Substrate in data set [4]: I
The data set is described as follows: iodide uptake kinetics (Km) in transduced HeLa cells. Type of data set: cell-based, Balaenoptera acutorostrata. Conditions: Na+.

Substrate in data set [5]: I
The description is as above. Conditions: Na+. Type of data set: cell-based, Danio rerio. The text has this:
iodide uptake kinetics (Km) in transduced HeLa cells on sodium iodide symporter (zNIS) | zNIS binds to iodide with the greatest affinity of the proteins examined in this study

Substrate in data set [6]: I
The description is as above. The class given is cell-based, Homo sapiens. Conditions: Na+.

With `[O-][Cl+3]([O-])([O-])O` [perchlorate], the 50% inhibitory concentration (IC50) was 4600 nM in data set [1], 1570 nM in data set [2] and 81 nM in data set [3].

B1: sodium iodide symporter (wNIS) (Balaenoptera acutorostrata) (protein)
chain: T1 sequence (A0A384B8D1 1-642)
notes: N-terminally HA-tagged NIS (642 residues, XP_007195539.1) expressed in HeLa cells
As for B1, in data set [4], the Km is 30.04 µM.

B2: sodium iodide symporter (zNIS) (Danio rerio) (protein)
chain: T3 sequence (A0AC58G7K6 1-601)
notes: N-terminally HA-tagged NIS (601 residues, NP_001082860.1) expressed in HeLa cells
In the case of B2, the Km in data set [5] was 3.688 µM.

B3: sodium iodide symporter (hNIS) (Homo sapiens) (protein)
chain: T2 sequence (Q92911 1-643)
notes: N-terminally HA-tagged NIS (643 residues) expressed in HeLa cells
In the case of B3, the Km in data set [6] is 12.01 µM.
